Results reported in US11666657B2, “Protein-drug conjugates and their use in the treatment of cancers” (UNIVERSITE DE STRASBOURG, priority 2017, dated 2023).
Values joined by “and” are separate entries in the source; they are usually repeats but may differ in a detail not shown here. Identical values can stand only once.

Legend:
HER2+ SK-BR-3 cells = test: In vitro efficacy on cell viability (CellTiter 96 AQueous One Solution Cell Proliferation Assay), HER2+ SK-BR-3; type: cell-based; details: 96 hrs treatment
Procedure: Antiproliferative activity of the ADCs according to this invention was evaluated on two cell lines and compared with that of the commercial ADC Kadcyla® (T-DM1).
HER2^+ SK-BR-3 and HER2^− MDA-MB-231 cell lines were grown in DMEM—high glucose (4,500 mg/L) supplemented with 10% fetal calf serum, Penicillin (200 U/mL)-Streptomycin (200 μg/mL) and L-glutamin (4 mM) (all from Sigma Aldrich, St Louis, Mo., USA). The effects of the payloads and ADCs on these cell lines were assessed using CellTiter 96® AQueous One Solution Cell Proliferation Assay (Promega, Madison, Wis., USA). The cytotoxic agent MMAE was used as a positive control of cell death and every condition was performed as triplicates. SKBR-3 cells were plated in 96-well plates at 3,000 cells/well for ADC tests and at 5,000 cells/well for payload tests, in 100 μL medium. MDA-MB231 cells were plated in 96-well plates at 15,000 cells/well, in 100 μL medium. The cells were allowed to adhere for 24 hrs at 37° C. in a humidified atmosphere of 5% CO2. Medium was then removed and replaced by payloads, ADCs, or MMAE, at different concentrations in fresh medium. […] Absorbance was measured at 515 nm using a 96-well plate reader (Flx-Xenius XM, Safas, Monaco), and to estimate the percentage of viable cells according to each treatment, the negative controls were considered as 100% viability. […]

[1] = tested on: BT-474 ductal carcinoma tumors; test: In vivo anti-tumour efficacy in nude mice bearing subcutaneous BT-474 tumors; set-up: species or system Balb/c nude mice; details: single i.v. injection 1 mg/kg, BT-474 tumours in nude mice, versus control group
Procedure: In vivo therapeutic efficacy of the ADCs of this invention was evaluated in nude mice bearing subcutaneous BT-474 tumors.
Twenty (20) 6 to 8 week-old Balb/c nude (CByJ.Cg-Foxn1nu/J) females (Charles River Laboratories, L'Arbresles, France) were implanted with BT-474 ductal carcinoma cells (2×10^7) suspended in 200 μL RPMI 1640 medium (Sigma Aldrich) containing matrigel (50:50, v:v, BD Biosciences, France). The injection was performed subcutaneously in the right flank. One day prior implant, the animals were gamma irradiated (2 Gy, ^60Co). The cell transplant was considered as day 0 (D0). Once tumours reached a volume of 200-300 mm^3, mice were randomized according to their individual tumour volume into four distinct groups. The variance of mouse distribution within the groups was analysed to confirm the homogeneity of the groups.
Animal viability, behaviour and well-being were recorded daily; body weight was measured twice a week; and tumour volume was assessed twice a week with a calliper. The volume of the tumour was estimated formula as follow: volume=(width^2×length)/2.
Relative tumour volumes (RTV) were calculated according to the following formula:
Specifically, a principal component analysis (PCA) was carried out using XL Stat software (Addinsoft, Paris, France) in order to compare antitumour activity of T-DM1 and T-APN-Gal-MMAE. […]

Question: Which results are given for trastuzumab emtansine [T-DM1]?
Answer: IC50 (HER2+ SK-BR-3 cells): 0.033 nM and 0.0342 nM; effect on tumour growth [1]: not statistically significant
